In the NIST ThermoML archive (doi:10.1021/je800600q):
Numbers after ± are expanded uncertainties.

Details: Crystal; DTA

- Normal melting temperature: 91.02 ± 0.5 °C
Structure (SMILES): CCc1occc(=O)c1O [2-ethyl-3-hydroxy-4H-pyran-4-one]
